Measured values published in patent publication US20150105252A1, “SUBSTITUTED PYRAZOLES AS HERBICIDES” (E I DU PONT DE NEMOURS AND COMPANY, priority 2013, published 2015).

Legend:
[1] = test system: crabgrass, large; experiment: Test A preemergence; assay type: in vivo, Digitaria sanguinalis; conditions: preemergence; for Crabgrass, Large plant response rating (0 to 100 scale): visual injury approx. 10 days after treatment
Outline: (§1)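 Greenhouse test in loam soil/sand blend; compounds formulated in non-phytotoxic solvent with surfactant, applied as preemergence directed soil spray or postemergence to plants 2–10 cm tall at one- to two-leaf stage. Injury rated visually versus untreated controls after approximately 10 days on a 0 (no effect) to 100 (complete control) scale.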

[2] = test system: wheat; experiment: Test A preemergence; assay type: in vivo, Triticum aestivum; conditions: preemergence; for Wheat plant response rating (0 to 100 scale): visual injury approx. 10 days after treatment
Outline: as §1

[3] = test system: wheat; experiment: Test A postemergence; assay type: in vivo, Triticum aestivum
Outline: as §1

[4] = test system: corn; experiment: Test C preemergence; assay type: in vivo, Zea mays
Text: (§2) Seeds of plant species selected from blackgrass (Alopecurus myosuroides), ryegrass, Italian (Italian ryegrass, Lolium multiflorum), wheat (winter wheat, Triticum aestivum), galium (catchweed bedstraw, Galium aparine), corn (Zea mays), crabgrass, large (large crabgrass, Digitaria sanguinalis), foxtail, giant (giant foxtail, Setaria faberii), johnsongrass (Sorghum halepense), lambsquarters (Chenopodium album), morningglory (Ipomoea coccinea), nutsedge, yellow (yellow nutsedge, Cyperus esculentus), pigweed (redroot pigweed, Amaranthus retroflexus), ragweed (common ragweed, Ambrosia elation), soybean (Glycine max), barnyardgrass (Echinochloa crus-galli), oilseed rape (Brassica napus), waterhemp (common waterhemp, Amaranthus rudis), oat, wild (wild oat, Avena fatua), kochia (Kochia scoparia), Surinam grass (Brachiaria decumbens), foxtail, green (green foxtail, Setaria viridis), goosegrass (Eleusine indica), bromegrass, downy (downy bromegrass, Bromus tectorum), nightshade (eastern black nightshade, Solanum ptycanthum), cocklebur (common cocklebur, Xanthium strumarium), cupgrass, woolly (woolly cupgrass, Eriochloa villosa), bermudagrass (Cynodon dactylon), sunflower, (common oilseed sunflower, Helianthus annuus), Russian thistle (Salsola kali), and velvetleaf (Abutilon theophrasti) were planted into a blend of loam soil and sand and treated preemergence with test chemicals formulated in a non-phytotoxic solvent mixture which included a surfactant.
(§3) At the same time, plants selected from these crop and weed species and also chickweed (common chickweed, Stellaria media), canarygrass (littleseed canarygrass, Phalaris minor), and deadnettle (henbit deadnettle, Lamium amplexicaule), were planted in pots containing Redi-Earth® planting medium (Scotts Company, 14111 Scottslawn Road, Marysville, Ohio 43041) comprising spaghnum peat moss, vermiculite, wetting agent and starter nutrients and treated with postemergence applications of test chemicals formulated in the same manner. Plants ranged in height from 2 to 18 cm (1- to 4-leaf stage) for postemergence treatments. Treated plants and controls were maintained in a greenhouse for 13 to 15 days, after which time all species were compared to controls and visually evaluated. Plant response ratings, summarized in Table C, are based on a scale of 0 to 100 where 0 is no effect and 100 is complete control. A dash (-) response means no test result.

[5] = test system: lambsquarters; experiment: Test C preemergence; assay type: in vivo, Chenopodium album
Text: as §2, §3

[6] = test system: nutsedge, yellow; experiment: Test C preemergence; assay type: in vivo, Cyperus esculentus
Text: as §2, §3

[7] = test system: waterhemp; experiment: Test C preemergence; assay type: in vivo, Amaranthus rudis
Text: as §2, §3

[8] = test system: velvetleaf; experiment: Test C preemergence; assay type: in vivo, Abutilon theophrasti
Text: as §2, §3

[9] = 125 g ai/ha, visual injury, 0 to 100 scale, approx. 10 days
[10] = 500 g ai/ha, visual injury after approx. 10 days, 0 to 100 scale (0 no effect, 100 complete control)
[11] = Postemergence, 500 g ai/ha, 0 to 100 scale (0 no effect, 100 complete control)
[12] = postemergence, 125 g ai/ha, about 10 days, visual rating on 0 to 100 scale (0 no effect, 100 complete control)
[13] = Preemergence, 4 g ai/ha, scale 0 to 100
[14] = Preemergence, 8 g ai/ha, scale 0 to 100
[15] = Preemergence, 16 g ai/ha, scale 0 to 100
[16] = preemergence, 31 g ai/ha, visual rating, scale 0 to 100 (0 no effect, 100 complete control), 13 to 15 days
[17] = preemergence, 62 g ai/ha, scale 0 to 100 (0 no effect, 100 complete control), 13 to 15 days
[18] = preemergence, 125 g ai/ha, 13 to 15 days, scale 0 to 100, 0 = no effect, 100 = complete control
[19] = preemergence, 250 g ai/ha, scale 0 to 100, 0 is no effect, 100 is complete control

Row | SMILES | Crabgrass, Large plant response rating [1, 10] | Wheat plant response rating [2, 10] | Wheat plant response rating [3, 11] | Wheat plant response rating [3, 12] | Corn plant response rating [4, 16] | Lambsquarters plant response rating [5, 16] | Nutsedge, Yellow plant response rating [6, 16] | Waterhemp plant response rating [7, 16] | Velvetleaf plant response rating [8, 16] | Crabgrass, Large plant response rating (0 to 100 scale) ([1]; 125 g ai/ha) | Wheat plant response rating (0 to 100 scale) ([2]; 125 g ai/ha) | Corn plant response rating [4, 17] | Plant response rating, Corn [4, 18] | Lambsquarters plant response rating [5, 17] | Plant response rating, Lambsquarters [5, 18] | Nutsedge, Yellow plant response rating [6, 17] | Plant response rating, Nutsedge, Yellow [6, 18] | Waterhemp plant response rating [7, 17] | Plant response rating, Waterhemp [7, 18] | Velvetleaf plant response rating [8, 17] | also measured
1 | CCOc1cc(C(=O)NCC(F)(F)F)nn1Cc1cc(C(F)(F)F)nn1C [Compound 140] | 100 | 100 | 70 | 40 | 10 | 75 | 15 | 95 | 45 | – | – | – | – | – | – | – | – | – | – | – | Crabgrass, Large plant response rating [1, 9]: 100; Wheat plant response rating [2, 9]: 70; Plant response rating, Corn [4, 13]: 0; Plant response rating, Corn [4, 14]: 0; Plant response rating, Corn [4, 15]: 0; Plant response rating, Lambsquarters [5, 13]: 5; Plant response rating, Lambsquarters [5, 14]: 55; Plant response rating, Lambsquarters [5, 15]: 40; Plant response rating, Nutsedge, Yellow [6, 13]: 0; Plant response rating, Nutsedge, Yellow [6, 14]: 15; Plant response rating, Nutsedge, Yellow [6, 15]: 0; Plant response rating, Waterhemp [7, 13]: 70; Plant response rating, Waterhemp [7, 14]: 70; Plant response rating, Waterhemp [7, 15]: 85; Plant response rating, Velvetleaf [8, 13]: 0; Plant response rating, Velvetleaf [8, 14]: 5; Plant response rating, Velvetleaf [8, 15]: 10
2 | O=C(NCC(F)(F)F)c1cc(CCF)n(Cc2ccnc(C(F)(F)F)c2)n1 [Compound 175] | 100 | 100 | 80 | 40 | 20 | 98 | 10 | 100 | 55 | 100 | 20 | 30 | 85 | 100 | 100 | 55 | 70 | 100 | 100 | 98 | Corn plant response rating [4, 19]: 90; Lambsquarters plant response rating [5, 19]: 100; Nutsedge, Yellow plant response rating [6, 19]: 98; Waterhemp plant response rating [7, 19]: 100; Plant response rating, Velvetleaf [8, 18]: 100; Velvetleaf plant response rating [8, 19]: 100
3 | O=C(NC1CC1)c1cc(CCF)n(Cc2ccnc(C(F)(F)F)c2)n1 [Compound 176] | 100 | 90 | 60 | 10 | 5 | 80 | 5 | 100 | 30 | 100 | 20 | 5 | 90 | 98 | 100 | 5 | 75 | 100 | 100 | 75 | Corn plant response rating [4, 19]: 90; Lambsquarters plant response rating [5, 19]: 100; Nutsedge, Yellow plant response rating [6, 19]: 85; Waterhemp plant response rating [7, 19]: 100; Plant response rating, Velvetleaf [8, 18]: 90; Velvetleaf plant response rating [8, 19]: 100
4 | CCNC(=O)c1cc(CCF)n(Cc2ccnc(C(F)(F)F)c2)n1 [Compound 178] | 100 | 30 | 30 | 0 | 5 | 80 | 5 | 90 | 15 | 100 | 0 | 5 | 25 | 100 | 100 | 15 | 35 | 100 | 100 | 55 | Plant response rating, Corn [4, 15]: 5; Plant response rating, Lambsquarters [5, 15]: 65; Plant response rating, Nutsedge, Yellow [6, 15]: 0; Plant response rating, Waterhemp [7, 15]: 65; Plant response rating, Velvetleaf [8, 15]: 10; Plant response rating, Velvetleaf [8, 18]: 70
5 | CCCc1cc(C(=O)NOC(C)C)nn1Cc1cc(C(F)(F)F)nn1C [Compound 203] | 100 | – | 80 | – | 5 | 75 | 5 | 85 | 30 | 100 | 80 | 50 | 75 | 100 | 100 | 35 | 85 | 95 | 100 | 98 | Wheat plant response rating ([3]; Postemergence, 125 g ai/ha, 0 to 100 scale, 0 no effect, 100 complete control): 70; Corn plant response rating [4, 19]: 98; Lambsquarters plant response rating [5, 19]: 100; Nutsedge, Yellow plant response rating [6, 19]: 90; Waterhemp plant response rating [7, 19]: 100; Plant response rating, Velvetleaf [8, 18]: 100; Velvetleaf plant response rating [8, 19]: 100
